Results on six molecules are retold here after ChEMBL document CHEMBL3217679, “Synthesis and biological activity profile of novel 2-cinnamylidene-1,3-diones related to coruscanone A: promising new antileishmanial agents” (Medchemcomm, 2012).

Activity calls are given as the source filed them. No cut-off for these calls is given here. Where only a bound is given, the exact number is not on record here.

One data set concerns Aspergillus fumigatus. Kind of data set: Antifungal activity against Aspergillus fumigatus ATCC 90906 assessed as growth inhibition after 46 to 50 hrs by alamar blue assay. The format is functional, organism-based.
Data set [1] in a line: Cytotoxicity against African green monkey Vero cells by neutral red assay. Format: cell-based. The settings on record: chlorocebus sabaeus, read-out: TC50 (the source's name).
In data set [2] the test system is Plasmodium falciparum. Put plainly: Antiparasitic activity against chloroquine-sensitive Plasmodium falciparum D6 assessed as growth inhibition at 16 uM after 48 hrs by pLDH assay. The format is functional, organism-based.
For another data set, the system named is Nakaseomyces glabratus. Put plainly: Antifungal activity against Candida glabrata ATCC 90030 assessed as growth inhibition after 46 to 50 hrs by modified CLSI method. The format is functional, organism-based.
The next data set deals with Candida albicans. Put plainly: Antifungal activity against Candida albicans ATCC 90028 assessed as growth inhibition after 46 to 50 hrs by modified CLSI method. Format: functional, organism-based.
For data set [3], the system named is Plasmodium falciparum. Put plainly: Antiparasitic activity against chloroquine-resistant Plasmodium falciparum W2 assessed as growth inhibition at 16 uM after 48 hrs by pLDH assay. The format is functional, organism-based.
Another data set concerns Pichia kudriavzevii. Kind of data set: Antifungal activity against Candida krusei ATCC 6258 assessed as growth inhibition after 46 to 50 hrs by modified CLSI method. The format is functional, organism-based.
The next data set relates to Leishmania donovani. Kind of data set: Antiparasitic activity against Leishmania donovani S1 promastigotes assessed as growth inhibition after 72 hrs by alamar blue assay. Format: functional, organism-based. The settings on record: S1, 72 h. (In general: Alamar Blue is a resazurin reagent that responds to reducing activity.)
The test system of a further data set is Cryptococcus neoformans. Put plainly: Antifungal activity against Cryptococcus neoformans ATCC 90113 assessed as growth inhibition after 70 to 74 hrs by modified CLSI method. Format: functional, organism-based.

One may read the IC50 as the concentration that inhibits the measured activity by half. The IC90 is the point of the concentration-response curve where the effect stands at 90%. On to `O=C1CCC(=O)C1=C/C=C/c1ccccc1`, for which the “growth inhibition (GI)” value in the data set on Aspergillus fumigatus, with Plasmodium falciparum [2], in the data set on Candida albicans and in the data set on Plasmodium falciparum [3] was “inactive” each time. Moreover, in data set [1], the CC50 is more than 22.4 µM. The IC50 in the data set on Nakaseomyces glabratus is more than 60 µM; in the data set with Pichia kudriavzevii it was 42.6 µM; with Leishmania donovani, 2.16 µM; in the data set with Cryptococcus neoformans it was 11.9 µM. In addition, the IC90 in the data set on Leishmania donovani was determined as 3.58 µM.
In the case of `COc1ccc(/C=C/C=C2C(=O)CCCC2=O)cc1`, the “growth inhibition (GI)” value in the data set on Aspergillus fumigatus, with Plasmodium falciparum [2], in the data set with Candida albicans and with Plasmodium falciparum [3] was “inactive” throughout. For the same molecule, the CC50 in [1] was more than 18.6 µM. For the same molecule, the IC50 with Nakaseomyces glabratus was 56 µM; in the data set on Pichia kudriavzevii it was more than 60 µM; in the data set with Leishmania donovani, 19.5 µM; with Cryptococcus neoformans, 44.7 µM. The IC90 with Leishmania donovani was 91.7 µM.
For the molecule `COc1ccc(/C=C/C=C(C(C)=O)C(C)=O)cc1`, the “growth inhibition (GI)” value with Aspergillus fumigatus, with Plasmodium falciparum [2], with Candida albicans and with Plasmodium falciparum [3] was “inactive” throughout. For the same molecule, the CC50 in data set [1] was more than 19.5 µM. The half-maximal inhibitory concentration (IC50) with Nakaseomyces glabratus is more than 60 µM; in the data set with Pichia kudriavzevii, more than 60 µM; with Leishmania donovani, 38.5 µM; with Cryptococcus neoformans it was more than 60 µM. Also, the IC90 in the data set on Leishmania donovani was more than 100 µM.
Turning to `CC1(C)CC(=O)C(=CC=C(c2ccccc2)c2ccccc2)C(=O)C1`, the “growth inhibition (GI)” value in the data set on Aspergillus fumigatus, with Plasmodium falciparum [2], in the data set with Candida albicans and in the data set on Plasmodium falciparum [3] was “inactive” in each case. In data set [1], the CC50 was more than 14.4 µM. Further, the IC50 in the data set on Nakaseomyces glabratus is more than 60 µM; with Pichia kudriavzevii, more than 60 µM; with Leishmania donovani, 9.38 µM; in the data set with Cryptococcus neoformans it was 23.6 µM. Besides, the concentration for an effect of 90% (IC90) in the data set on Leishmania donovani worked out at 26.6 µM.
Regarding `CC1(C)CC(=O)C(=C/C=C/c2ccc(Br)cc2)C(=O)C1`, the “growth inhibition (GI)” value in the data set with Aspergillus fumigatus, in the data set with Plasmodium falciparum [2], with Candida albicans and in the data set on Plasmodium falciparum [3] was “inactive” each time. Further, the CC50 in [1] was more than 14.3 µM. The IC50 in the data set on Nakaseomyces glabratus is more than 60 µM; in the data set with Pichia kudriavzevii it was more than 60 µM; in the data set on Leishmania donovani it was 9.6 µM; in the data set with Cryptococcus neoformans, 24.7 µM. Also, in the data set with Leishmania donovani, the concentration for an effect of 90% (IC90) amounted to 18.6 µM.
Consider `COc1ccc(/C=C/C=C2C(=O)CC(C)(C)CC2=O)cc1`, for which the “growth inhibition (GI)” value in the data set on Aspergillus fumigatus, in the data set with Plasmodium falciparum [2], in the data set with Candida albicans and in the data set with Plasmodium falciparum [3] was “inactive” each time. The CC50 in data set [1] was more than 16.7 µM. Further, the half-maximal inhibitory concentration (IC50) was more than 60 µM in the data set with Nakaseomyces glabratus, more than 60 µM in the data set with Pichia kudriavzevii, 30.6 µM with Leishmania donovani and 38.2 µM with Cryptococcus neoformans. Also, the 90% effect concentration (IC90) in the data set with Leishmania donovani came out at 68.9 µM.
